Experimental data reported in paper PMC7561186, “Rational design of balanced dual-targeting antibiotics with limited resistance” (PLoS Biology, 2020).
Values after ≈ are worked out from the molar mass of the structure shown. Values joined by “and” are separate entries in the source; they are usually repeats but may differ in a detail not shown here. Identical values can stand only once.

Key:
[1] = system: S. aureus ATCC 700699 VISA; assay: Time-dependent killing; type: cell-based; settings: for Time-kill bacterial count: 10xMIC; for Colony numbers: time-kill raw counts, Samples 1-3
Description: Time-dependent killing experiments were performed as previously. S. aureus ATCC 700699 VISA cells were inoculated to MHBII agar plates and grown overnight at 37 °C. Next, 3 independent stationer-phase starter cultures were grown at 37 °C, 250 rpm overnight, in 3 × 1 mL MHBII broth. Next, 100-fold diluted cultures were prepared from each in 20 mL fresh MHBII medium and grown at 37 °C, 250 rpm until early exponential phase (OD600 = 0.3–0.4; i.e., 5 × 10^5 cells/mL). […] Cells were treated with antibiotics in Erlenmeyer flasks at 37 °C, 150 rpm for 48 hours. […] Next, 50 μL from each dilution were plated on MHBII agar plates, and plates were incubated overnight at 37 °C to calculate CFU per mL.

[2] = system: S. aureus USA300 (MRSA) BAA1556, S. aureus (VRSA) ECL2963646, S. aureus Mu50 (VISA) ATCC 700699; assay: S. aureus dermal infection model; type: in vivo, ICR mice; settings: 2% treatment, individual animals
Description: The testing strains, S. aureus USA300 (MRSA) BAA1556, S. aureus (VRSA) ECL2963646, and S. aureus Mu50 (VISA) ATCC 700699 were obtained from frozen stocks and thawed at room temperature. Next, an aliquot of 0.2 mL from each stock was transferred to 20 mL BHI broth and incubated at 37 °C with shaking (120 rpm) for 8 hours. Cells in 20 mL culture were pelleted by centrifugation, 3,500g for 15 minutes, and then resuspended in 10 mL cold PBS, then cells were diluted in PBS to obtain the inoculum sizes of 1×10^5 or 1× 10^6 CFU/mL, based on the testing strain’s virulence. In all cases, the actual colony counts were determined by plating dilutions in at least 3 replicates onto MHBII agar plates followed by 24 hours’ incubation and colony counting.
For dermal infections, groups of 5 female ICR mice weighing 24 ± 4 g, provided by BioLasco Taiwan (under a Charles River Laboratories Technology Licensee), were used. Animals were acclimated for 3 days prior to use and were confirmed to be in good health. Prior to infection, animals were anesthetized with etomidate-lipuro emulsion (20 mg /10 mL) at 20 mg/kg by IV injection, and then the fur on the back was removed by an electric shaver, and the epidermal layer was disrupted with an abrasive paper according to the protocol developed by Kugelberg and colleagues. Mice were inoculated topically on the wound area with testing strain suspension, 5 μL/mouse. The target inoculation densities were 1×10^5 or 1× 10^6 CFU/mL, based on the corresponding strain’s virulence. Following infection, animals were housed separately. […] Test articles were administered topically (20 μL/mouse) twice daily. One no-treatment group was euthanized at 1 hour after infection for initial bacterial counts, and the other treatment groups were dosed twice daily with the test compounds and sacrificed either at 25 hours or at 73 hours postinfection. Animals were euthanized with CO2 asphyxiation and the infected skin, a 2 cm^2 area, was excised. The skin samples of the wound infection (around 2 cm^2 areas) were then homogenized in 1 mL PBS (pH 7.4) with a polytron homogenizer. A 0.1 mL aliquot of each homogenate was used for serial 10-fold dilutions and plated onto MHBII agar plates for bacterial enumeration. Statistical significance (P <0.05) was assessed with 1-way ANOVA followed by Dunnett’s method. A significant (P <0.05) decrease in the bacterial counts of the treated animals compared with the vehicle control group was considered significant antimicrobial activity.

S. aureus = assay: pH-dependent MIC determination; type: cell-based; settings: for MIC: Staphylococcus aureus
Description: MICs were determined using a standard serial broth microdilution technique according to the CLSI guidelines. Briefly, bacterial strains were inoculated onto MHBII agar plates and were grown overnight at 37 °C. Next, 3 individual colonies from each strain were inoculated into 1 mL MHBII medium and propagated at 37 °C, 250 rpm overnight. In the cases of Enterococcus and Streptococcus sp., cells were plated to BHI agar plates, and BHI broth was used to determine MICs. […] Following dilutions, each well was seeded with 5×10^4 bacterial cells. All measurements were performed in 3 parallel replicates and to avoid possible edge effects in microwell plates, side rows (A and H) were filled with sterile medium. Following inoculations, plates were covered with lids and wrapped in polyethylene plastic bags to minimize evaporation but allow for O2 transfer. Plates were incubated at 37 °C under continuous shaking at 150 rpm for 18 hours. After incubation, OD600 of each well was measured using a BioTek Synergy 2 microplate reader.

[3] = system: S. aureus clinical isolates; assay: microbe, parasite or virus in culture; type: cell-based; settings: Staphylococcus aureus
human red blood cells = assay: Haemolysis analysis; settings: human red blood cells, 50 µg/mL, positive control
Description: Next, 600 μl of this EDTA-treated blood was washed in TBS buffer (10 mM TRIS, 150 mM NaCl [pH 7.2]) and centrifuged at 1,500 g for 1 minute until the supernatant became colorless. The aliquot of the final pellet (200 μL) was diluted to 5 mL with TBS buffer. […] Next, 100 μL of red blood cell suspension was pipetted into sterile Eppendorf tubes together with 100 μL of 2-fold serial dilution of the compounds (final concentration ranged between 100 μg/mL–0.1 μg/mL in a final volume of 200 μL). The plate was incubated for one hour at 37 °C followed by centrifugation at 1,500 g for 1 minute to sediment all red blood cells. Next, all supernatants were subjected to LDH and Haemolysis-Icterus-Lipaemia (HIL) index determination on a Roche Modular P800 analyzer according to the manufacturer’s instructions. After completion of this step the rest of the supernatants were transferred to sterile 96-well plates for the measurement of their optical density at 560-nm wavelength (in a Multiskan FC microplate reader, Thermo Scientific). Melittin (Bachem) at a concentration of 50 μg/mL, and TBS and 10% DMSO/TBS were served as positive (100% hemolysis) and negative (no hemolysis) controls, respectively.

[4] = S. aureus ATCC 43300 (MRSA), pH 5.5
[5] = S. aureus ATCC 43300 (MRSA), pH 7.3
[6] = S. aureus ATCC 700699 (VISA), pH 5.5
[7] = S. aureus ATCC 700699 (VISA), pH 7.3

CC(=O)O[C@H]1C[C@@]2(C)[C@@H](C[C@@H](O)[C@H]3[C@@]4(C)CC[C@@H](O)[C@@H](C)[C@@H]4CC[C@@]32C)/C1=C(\CCC=C(C)C)C(=O)O [fusidic acid]
Time-kill bacterial count ([1]; time 0 hour): 2.80E+05
Time-kill bacterial count ([1]; time 3 hour): 7.80E+04
Time-kill bacterial count ([1]; time 6 hour): 5.60E+04
Time-kill bacterial count ([1]; time 12 hour): 1.40E+04
Time-kill bacterial count ([1]; time 18 hour): 3.40E+03
Time-kill bacterial count ([1]; time 24 hour): 1.40E+03
Time-kill bacterial count ([1]; time 48 hour): 1.70E+04
Colony numbers ([1]; time 0 h, Dilution 100): 145 and 132 and 137
Colony numbers ([1]; time 3 h, Dilution 100): 47 and 39 and 31
Colony numbers ([1]; time 6 h, Dilution 100): 31 and 21 and 32
Colony numbers ([1]; time 12 h, Dilution 10): 81 and 58 and 73
Colony numbers ([1]; time 18 h, Dilution 1): 223 and 160 and 130
Colony numbers ([1]; time 24 h, Dilution 0.5): 163 and 86 and 158
regrowth of S. aureus populations ([1]; within 48 hours, 10× MIC, in words): regrowth was observable
Log CFU/Skin ([2]; Staphylococcus aureus USA300 (MRSA)): 4.49 Log CFU/Skin and 5.07 Log CFU/Skin and 4.98 Log CFU/Skin and 4.68 Log CFU/Skin and 3.36 Log CFU/Skin

Nc1nc(-n2cc(C(=O)O)c(=O)c3cc(F)c(N4CC(O)C4)c(Cl)c32)c(F)cc1F [Delafloxacin]
MIC (S. aureus; [4]): 0.0005 µg/mL
MIC (S. aureus; [5]): 0.004 µg/mL
MIC (S. aureus; [6]): 0.032 µg/mL
MIC (S. aureus; [7]): 1 µg/mL

C/C(=C\C(=O)OCCCCCCCCC(=O)O)C[C@@H]1OC[C@H](C[C@@H]2O[C@H]2[C@@H](C)[C@H](C)O)[C@@H](O)[C@H]1O [mupirocin, reference compound]
Log CFU/Skin ([2]; Staphylococcus aureus ECL 2963646 (VRSA)): 5.07 Log CFU/Skin and 5.72 Log CFU/Skin and 5.58 Log CFU/Skin and 5.64 Log CFU/Skin and 4.16 Log CFU/Skin
Log CFU/Skin ([2]; Staphylococcus aureus Mu50 ATCC 700699 (VISA)): 3.89 Log CFU/Skin and 4.45 Log CFU/Skin and 5.25 Log CFU/Skin and 3.85 Log CFU/Skin and 4.43 Log CFU/Skin

CN[C@H](CC(C)C)C(=O)N[C@H]1C(=O)N[C@@H](CC(N)=O)C(=O)N[C@H]2C(=O)N[C@H]3C(=O)N[C@H](C(=O)N[C@H](C(=O)O)c4cc(O)cc(O)c4-c4cc3ccc4O)[C@H](O)c3ccc(c(Cl)c3)Oc3cc2cc(c3O[C@@H]2O[C@H](CO)[C@@H](O)[C@H](O)[C@H]2O[C@H]2C[C@](C)(N)[C@H](O)[C@H](C)O2)Oc2ccc(cc2Cl)[C@H]1O [Vancomycin]
Time-kill bacterial count ([1]; time 0 hour): 2.80E+05
Time-kill bacterial count ([1]; time 3 hour): 8.40E+04
Time-kill bacterial count ([1]; time 6 hour): 3.30E+04
Time-kill bacterial count ([1]; time 12 hour): 1.30E+03
Time-kill bacterial count ([1]; time 18 hour): 3.80E+03
Time-kill bacterial count ([1]; time 24 hour): 1.60E+02
Time-kill bacterial count ([1]; time 48 hour): 5.30E+01
Colony numbers ([1]; time 0 h, Dilution 100): 145 and 132 and 137
Colony numbers ([1]; time 3 h, Dilution 100): 48 and 36 and 42
Colony numbers ([1]; time 6 h, Dilution 100): 20 and 13 and 16
Colony numbers ([1]; time 12 h, Dilution 10): 8 and 7 and 4
Colony numbers ([1]; time 18 h, Dilution 1): 231 and 176 and 163
Colony numbers ([1]; time 24 h, Dilution 0.5): 17 and 12 and 18
potency on shift from pH 7.3 to 5.5 (S. aureus; S. aureus, in words): unaffected
MIC (S. aureus; [4]): 2 µg/mL
MIC (S. aureus; [5]): 1 µg/mL
MIC (S. aureus; [6]): 8 µg/mL
MIC (S. aureus; [7]): 8 µg/mL
MIC ([3]; ATCC 29213 / MSSA): 1 µg/mL (≈ 0.69 µM)
MIC ([3]; MRSA): 1 µg/mL (≈ 0.69 µM)
MIC ([3]; MRSA / NRS 3 / VISA): 8 µg/mL (≈ 5.52 µM)
MIC ([3]; MRSA / NRS 4 / VISA): 4 µg/mL (≈ 2.76 µM)
MIC ([3]; MRSA / NRS 18 / VISA): 8 µg/mL (≈ 5.52 µM)
MIC ([3]; MRSA / NRS 19 / VISA): 4 µg/mL (≈ 2.76 µM)
MIC ([3]; MRSA / NRS 21 / VISA): 4 µg/mL (≈ 2.76 µM)
MIC ([3]; MRSA / NRS 22 / USA600 / VISA): 8 µg/mL (≈ 5.52 µM)
MIC ([3]; MRSA / NRS 23 / VISA): 4 µg/mL (≈ 2.76 µM)
MIC ([3]; MRSA / NRS 24 / VISA): 8 µg/mL (≈ 5.52 µM)
MIC ([3]; MRSA / NRS 26): 2 µg/mL (≈ 1.38 µM)
MIC ([3]; MRSA / NRS 27 / VISA): 4 µg/mL (≈ 2.76 µM)
MIC ([3]; MRSA / NRS 29 / VISA): 4 µg/mL (≈ 2.76 µM)
MIC ([3]; MRSA / NRS 37 / VISA): 4 µg/mL (≈ 2.76 µM)
MIC ([3]; MRSA / NRS 54): 2 µg/mL (≈ 1.38 µM)
MIC ([3]; MRSA / NRS 56 / VISA): 4 µg/mL (≈ 2.76 µM)
MIC ([3]; MRSA / USA100 / VRSA): > 64 µg/mL
MIC ([3]; MRSA / USA800 / VRSA): > 64 µg/mL
MIC ([3]; MSSA): 1 µg/mL (≈ 0.69 µM)
MIC ([3]; MSSA / NRS 12 / VISA): 4 µg/mL (≈ 2.76 µM)
MIC ([3]; MSSA / NRS 13 / VISA): 4 µg/mL (≈ 2.76 µM)
MIC ([3]; MSSA / NRS 14 / VISA): 4 µg/mL (≈ 2.76 µM)
MIC ([3]; MSSA / NRS 17 / VISA): 8 µg/mL (≈ 5.52 µM)
MIC ([3]; MSSA / NRS 28 / VISA): 4 µg/mL (≈ 2.76 µM)
MIC ([3]; MSSA / NRS 52): 2 µg/mL (≈ 1.38 µM)
MIC ([3]; MSSA / USA100 / VRSA): > 64 µg/mL

Melittin [reference compound]
Hemolytic Index (human red blood cells): 248
LDH activity (human red blood cells): 525 Unit/mL
